According to patent US20250145640A1, “2,2-DIFLUORO-5H-[1,3]DIOXOLO[4,5-F]ISOINDOL-7-ONE DERIVATIVES AS PESTICIDES” (SYNGENTA CROP PROTECTION AG, priority 2021, published 2025):

Experiments:
Type in all cases: in vivo
[1] = test system: Chilo suppressalis (Striped Rice Stemborer); assay: Example B1: Activity against Chilo suppressalis, artificial diet in 24-well microtiter plates; settings: 144 h, application rate 200 ppm, L2 larvae, assessed 6 days after infestation, read-out: control (at least one of mortality, anti-feedant effect, growth inhibition)
Experimental: Example B1: Activity Against Chilo suppressalis (Striped Rice Stemborer)
24-well microtiter plates with artificial diet were treated with aqueous test solutions prepared from 10′000 ppm DMSO stock solutions by pipetting. After drying, the plates were infested with L2 larvae (6-8 per well). The samples were assessed for mortality, anti-feeding effect, and growth inhibition in comparison to untreated samples 6 days after infestation. Control of Chilo suppressalis by a test sample is given when at least one of the categories mortality, anti-feedant effect, and growth inhibition is higher than the untreated sample.

[2] = test system: Diabrotica Balteata (Corn Root Worm); assay: Example B2: Activity against Diabrotica balteata, sprayed maize sprouts on agar; settings: 96 h, application rate 200 ppm, L2 larvae, assessed 4 days after infestation, read-out: effect in at least one of the two categories (mortality or growth inhibition)
Experimental: Example B2: Activity Against Diabrotica Balteata (Corn Root Worm)
Maize sprouts placed onto an agar layer in 24-well microtiter plates were treated with aqueous test solutions prepared from 10′000 ppm DMSO stock solutions by spraying. After drying, the plates were infested with L2 larvae (6 to 10 per well). The samples were assessed for mortality and growth inhibition in comparison to untreated samples 4 days after infestation.

[3] = test system: Myzus persicae (Green peach aphid); assay: Example B4: Activity against Myzus persicae, feeding/contact activity on sunflower leaf discs; settings: foliar, 144 h, application rate 200 ppm, aphid population of mixed ages, assessed 6 days after infestation
Experimental: Example B4: Activity against Myzus persicae (Green peach aphid) Feeding/Contact activity Sunflower leaf discs were placed onto agar in a 24-well microtiter plate and sprayed with aqueous test solutions prepared from 10′000 ppm DMSO stock solutions. After drying, the leaf discs were infested with an aphid population of mixed ages. The samples were assessed for mortality 6 days after infestation.

[4] = test system: Plutella xylostella (Diamond Back Moth); assay: Example B5: Activity against Plutella xylostella, artificial diet in 24-well microtiter plates; settings: 192 h, application rate 200 ppm, eggs, assessed 8 days after infestation, read-out: effect in at least one of the two categories (mortality or growth inhibition)
Experimental: Example B5: Activity Against Plutella xylostella (Diamond Back Moth)
24-well microtiter plates with artificial diet were treated with aqueous test solutions prepared from 10′000 ppm DMSO stock solutions by pipetting. After drying, Plutella eggs were pipetted through a plastic stencil onto a gel blotting paper and the plate was closed with it. The samples were assessed for mortality and growth inhibition in comparison to untreated samples 8 days after infestation.

[5] = test system: Spodoptera littoralis (Egyptian Cotton Leaf Worm); assay: Example B6: Activity against Spodoptera littoralis, sprayed cotton leaf discs on agar; settings: foliar, 72 h, application rate 200 ppm, L1 larvae, assessed 3 days after infestation, read-out: control (at least one of mortality, anti-feedant effect, growth inhibition)
Experimental: Example B6: Activity Against Spodoptera littoralis (Egyptian Cotton Leaf Worm)
Cotton leaf discs were placed onto agar in 24-well microtiter plates and sprayed with aqueous test solutions prepared from 10′000 ppm DMSO stock solutions. After drying the leaf discs were infested with five L1 larvae. The samples were assessed for mortality, anti-feeding effect, and growth inhibition in comparison to untreated samples 3 days after infestation. Control of Spodoptera littoralis by a test sample is given when at least one of the categories mortality, anti-feedant effect, and growth inhibition is higher than the untreated sample.

[6] = test system: Euschistus heros (Neotropical Brown Stink Bug); assay: Example B3: Activity against Euschistus heros, sprayed soybean leaves on agar; settings: 120 h, application rate 200 ppm, N2 nymphs, assessed 5 days after infestation, read-out: effect in at least one of the two categories (mortality or growth inhibition)
Experimental: Example B3: Activity Against Euschistus heros (Neotropical Brown Stink Bug)
Soybean leaves on agar in 24-well microtiter plates were sprayed with aqueous test solutions prepared from 10′000 ppm DMSO stock solutions. After drying the leaves were infested with N2 nymphs. The samples were assessed for mortality and growth inhibition in comparison to untreated samples 5 days after infestation.

CCS(=O)(=O)c1c(N2Cc3cc4c(cc3C2=O)OC(F)(F)O4)nc2ccc(C(F)(F)F)cn12 [P1, 6-[3-ethylsulfonyl-6-(trifluoromethyl)imidazo[1,2-a]pyridin-2-yl]-2,2-difluoro-5H-[1,3]dioxolo[4,5-f]isoindol-7-one]
≥ 80%: control (mortality, anti-feedant effect or growth inhibition) at 200 ppm [1] | percent effect (mortality or growth inhibition) at 200 ppm [2] | mortality at 200 ppm [3] | percent effect (mortality or growth inhibition) at 200 ppm [4] | percent control (mortality, anti-feedant effect or growth inhibition) at 200 ppm [5]

CCS(=O)(=O)c1cc2ccccc2nc1N1Cc2cc3c(cc2C1=O)OC(F)(F)O3 [P2, 6-(3-ethylsulfonyl-2-quinolyl)-2,2-difluoro-5H-[1,3]dioxolo[4,5-f]isoindol-7-one]
≥ 80%: percent effect (mortality or growth inhibition) at 200 ppm [2] | percent effect (mortality or growth inhibition) at 200 ppm [6] | mortality at 200 ppm [3] | percent effect (mortality or growth inhibition) at 200 ppm [4] | percent control (mortality, anti-feedant effect or growth inhibition) at 200 ppm [5]

CCS(=O)(=O)c1c(N2Cc3cc4c(cc3C2=O)OC(F)(F)O4)nn2cc(C(F)(F)F)ccc12 [P3, 6-[3-ethylsulfonyl-6-(trifluoromethyl)pyrazolo[1,5-a]pyridin-2-yl]-2,2-difluoro-5H-[1,3]dioxolo[4,5-f]isoindol-7-one]
≥ 80%: control (mortality, anti-feedant effect or growth inhibition) at 200 ppm [1] | percent effect (mortality or growth inhibition) at 200 ppm [2] | mortality at 200 ppm [3] | percent effect (mortality or growth inhibition) at 200 ppm [4] | percent control (mortality, anti-feedant effect or growth inhibition) at 200 ppm [5]

CCS(=O)(=O)c1c(N2Cc3cc4c(cc3C2=O)OC(F)(F)O4)nn2cc(C3CC3)ccc12 [P4, 6-(6-cyclopropyl-3-ethylsulfonyl-pyrazolo[1,5-a]pyridin-2-yl)-2,2-difluoro-5H-[1,3]dioxolo[4,5-f]isoindol-7-one]
≥ 80%: control (mortality, anti-feedant effect or growth inhibition) at 200 ppm [1] | percent effect (mortality or growth inhibition) at 200 ppm [2] | percent effect (mortality or growth inhibition) at 200 ppm [6] | mortality at 200 ppm [3] | percent effect (mortality or growth inhibition) at 200 ppm [4] | percent control (mortality, anti-feedant effect or growth inhibition) at 200 ppm [5]

CCS(=O)(=O)c1c(N2Cc3cc4c(cc3C2=O)OC(F)(F)O4)nc2ccc(Cl)cn12 [P11, 6-(6-chloro-3-ethylsulfonyl-imidazo[1,2-a]pyridin-2-yl)-2,2-difluoro-5H-[1,3]dioxolo[4,5-f]isoindol-7-one]
≥ 80%: control (mortality, anti-feedant effect or growth inhibition) at 200 ppm [1] | percent effect (mortality or growth inhibition) at 200 ppm [2] | percent effect (mortality or growth inhibition) at 200 ppm [6] | percent effect (mortality or growth inhibition) at 200 ppm [4] | percent control (mortality, anti-feedant effect or growth inhibition) at 200 ppm [5]

CCS(=O)(=O)c1c(N2Cc3cc4c(cc3C2=O)OC(F)(F)O4)nn2cc(Br)ccc12 [P12, 6-(6-bromo-3-ethylsulfonyl-pyrazolo[1,5-a]pyridin-2-yl)-2,2-difluoro-5H-[1,3]dioxolo[4,5-f]isoindol-7-one]
≥ 80%: control (mortality, anti-feedant effect or growth inhibition) at 200 ppm [1] | percent effect (mortality or growth inhibition) at 200 ppm [2] | mortality at 200 ppm [3] | percent effect (mortality or growth inhibition) at 200 ppm [4] | percent control (mortality, anti-feedant effect or growth inhibition) at 200 ppm [5]

CCS(=O)(=O)c1c(N2Cc3cc4c(cc3C2=O)OC(F)(F)O4)nn2cc(Cl)ccc12 [P14, 6-(6-chloro-3-ethylsulfonyl-pyrazolo[1,5-a]pyridin-2-yl)-2,2-difluoro-5H-[1,3]dioxolo[4,5-f]isoindol-7-one]
≥ 80%: control (mortality, anti-feedant effect or growth inhibition) at 200 ppm [1] | percent effect (mortality or growth inhibition) at 200 ppm [2] | mortality at 200 ppm [3] | percent effect (mortality or growth inhibition) at 200 ppm [4] | percent control (mortality, anti-feedant effect or growth inhibition) at 200 ppm [5]

CCS(=O)(=O)c1c(N2Cc3cc4c(cc3C2=O)OC(F)(F)O4)nn2ccc(Cl)cc12 [P15, 6-(5-chloro-3-ethylsulfonyl-pyrazolo[1,5-a]pyridin-2-yl)-2,2-difluoro-5H-[1,3]dioxolo[4,5-f]isoindol-7-one]
≥ 80%: control (mortality, anti-feedant effect or growth inhibition) at 200 ppm [1] | percent effect (mortality or growth inhibition) at 200 ppm [2] | percent effect (mortality or growth inhibition) at 200 ppm [6] | percent effect (mortality or growth inhibition) at 200 ppm [4] | percent control (mortality, anti-feedant effect or growth inhibition) at 200 ppm [5]
